We go through four compounds from patent US20030220524A1, “Sulfur containing compounds” (priority 2000, published 2003).

Common to all, as to assay type: cell-based, human
What all share (conditions): 48 h

Test [1] has as its system NB-4 leukemic cell line. As to the kind of experiment: TUNEL, flow cytometry. The method, then: (§1) Adherent cell lines were plated at 35×10^4 cells/60 cm^2 dish the day before exposure to compound. Suspension cells were seeded at 25×10^4 cells/mL in a 6 well dish (Falcon) the day of exposure to compound. Mononucleated, T-cell depleted normal bone marrow cells were seeded at 50×10^4 cells/mL in a 6 well dish the day of exposure to compound. Cells were exposed to solvent control or approximate MTT50 and MTT30 concentrations of the compound. After 48 h of exposure to the compound, cells were harvested and fixed with a final concentration of 4% formaldehyde. Fixed cells were stored at −20° C. in 70% ethanol for no more than 5 days. Approximately 10^5 cells were pelleted and labeled with 0.02 mM Biotin-dUTP and 12.5 U TdT enzyme in a 1× reaction buffer (200 mM potassium cacodylate, 25 mM Tris-HCl, 25 μg/mL bovine serum albumin, pH 6.6), 2.5 mM CoCl2 and 0.01 mM dTTP (Roche Molecular Biochemicals, Laval, QC, Canada) for 45 min at 37° C. Samples were washed and incubated in 200 μL of 1:1000 fluorescein isothiocyanate (FITC)-conjugated avidin (Sigma) in 4×SSC, 5% skim milk powder and 0.05% Tween-20 (Sigma). Following 1 h of mixing at room temperature, the samples were washed and resuspended in 500 μL of D-PBS containing 2.5 μg/mL DNase-free RNase (Boehringer Mannheim) and 10 μg/mL PI. Following a 30 min incubation at room temperature, cells were analyzed using a XL-MCL flow cytometer (Coulter Corporation, Miami, Fla.) and a FACScalibar cytometer (Becton Dickinson, San Jose, Calif.). Profiles shown are representative of one experiment.
as §1, with “? s” for “Cells”, “appr ? nate” for “approximate”, “of” for “of the”, “Pl.” for “PI.”
(In general: A flow cytometer gives signals particle by particle.)

Test [2] concerns B1 leukemic cell line. As to the kind of experiment: TUNEL, flow cytometry. The protocol:
as §1
as §1, with “? s” for “Cells”, “appr ? nate” for “approximate”, “of” for “of the”, “Pl.” for “PI.”

Test [3] deals with WI38 non-transformed diploid fibroblasts. As to the kind of experiment: TUNEL, flow cytometry. The protocol:
as §1
as §1, with “? s” for “Cells”, “appr ? nate” for “approximate”, “of” for “of the”, “Pl.” for “PI.”

In test [4] the test system is G2 leukemic cell line. As to the kind of experiment: TUNEL, flow cytometry. The protocol: as §1
as §1, with “? s” for “Cells”, “appr ? nate” for “approximate”, “of” for “of the”, “Pl.” for “PI.”

Test [5] deals with KK leukemic cell line. As to the kind of experiment: TUNEL, flow cytometry. The method, then: as §1
as §1, with “? s” for “Cells”, “appr ? nate” for “approximate”, “of” for “of the”, “Pl.” for “PI.”

The subject of test [6] is NB-4 leukemic cell line. As to the kind of experiment: Fixed propidium iodide staining, flow cytometry.

Turning to `CSCSSC` [Compound N, 2,3,5-trithiahexane], the “% TUNEL +ve” value was 17% in test [1] (dose 50 uM); 19% in test [1] (dose 100 uM); 49% in test [2] (dose 50 uM); 44% in test [2] (dose 100 uM); 0.7% in test [3] (dose 50 uM); 2% in test [3] (dose 100 uM). The “% TUNEL +ve” value in test [4] (dose 50 uM) is on record as 18%; in test [4] (dose 100 uM) it was 19%.
Turning to `CCC(=O)OCSSc1ccccc1` [Compound Q, 1-phenyl-1,2-dithiapropyl propionate], the “% TUNEL +ve” value is given as 16% in test [1] (dose 50 uM); 43% in test [5] (dose 25 uM); 61% in test [5] (dose 50 uM); 32% in test [2] (dose 25 uM); 78% in test [2] (dose 50 uM); 4% in test [3] (dose 25 uM). Also, the “% TUNEL +ve” value came to 0.2% in test [3] (dose 50 uM), 23% in test [4] (dose 25 uM) and 58% in test [4] (dose 50 uM).
`CSSCC(=O)c1ccccc1` [Compound P, phenacyl methyl disulphide]: the “% TUNEL +ve” value in test [1] (dose 50 uM) turned out to be 24%; in test [1] (dose 100 uM), 0.2%; in test [5] (dose 50 uM) it was 47%; in test [5] (dose 100 uM), 78%; in test [2] (dose 50 uM), 39%; in test [2] (dose 100 uM) it was 67%. The “% TUNEL +ve” value came to 0.70% in test [3] (dose 50 uM), 1.7% in test [3] (dose 100 uM), 17% in test [4] (dose 50 uM) and 53% in test [4] (dose 100 uM). For the same compound, the “% pre-G1 (Fixed PI)” value amounted to 18% in test [6] (NB-4, dose 50 uM) and 75% in test [6] (NB-4, dose 150 uM).
For the compound `CSSc1ccc([N+](=O)[O-])cc1` [M, methyl p-nitrophenyl disulphide], the “% pre-G1 (Fixed PI)” value came to 16% in test [6] (cell line printed NBA, dose 20 uM) and 60% in test [6] (cell line printed NBA, dose 40 uM).
